From patent US20240336654A1, “ANTIMICROBIAL PEPTIDOMIMETICS” (SPEXIS AG, priority 2021, published 2024)
Where a SMILES comes first, the peptide text is derived from it. Bridges are numbered along the chain shown (N, C = ends). [ ]: non-standard residue; d: D form. The star is where a group is joined. Val(Nα-amidino) = CC(C)[C@H](NC(=N)N)C(=O)*; Hyp = O=C(O)[C@@H]1C[C@@H](O)CN1; Pen = CC(C)(S)[C@H](N)C(=O)O; dDab = NCC[C@@H](N)C(=O)O; Dab = NCC[C@H](N)C(=O)O

Experiments:
Assay type in all cases: cell-based
[1] = tested on: Escherichia coli MCR-1 Af 45; details: MCR-1 Af 45
Procedure, shortened: (§1)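 The MIC is the lowest peptide concentration, in μg/mL, with no visible growth after 18-20 h incubation at 35 °C. Serial two-fold peptide dilutions in water with 0.002% P-80 final were added to bacteria in cation-adjusted MHII broth, about 5×10^5 CFU/mL, following modified CLSI microdilution.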

[2] = tested on: Escherichia coli ATCC 25922; details: ATCC 25922
Procedure, shortened: as §1

[3] = tested on: Klebsiella pneumoniae SSI3010; details: SSI3010
Procedure, shortened: as §1

[4] = tested on: human red blood cells (hRBC); details: red cells of human, 1 h, 200 μg/mL
Procedure, shortened: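 Peptides at 200 μg/mL incubated 1 h at 37 °C with 20% (v/v) washed human RBC, shaking. Hemolysis from supernatant OD540, expressed as percent of 2.5% Triton X-100 lysis, with PBS as 0%.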

## CC[C@H](C)[C@@H]1NC(=O)[C@H](CO)NC(=O)[C@H](Cc2ccc(O)cc2)NC(=O)[C@@H](NC(=O)[C@@H](NC(=O)[C@@H]2C[C@@H](O)CN2C(=O)[C@@H](N)C(C)C)[C@@H](C)CC)C(C)(C)SSC[C@@H](C(=O)N[C@@H](Cc2ccc(O)cc2)C(=O)O)NC(=O)[C@H](CCN)NC(=O)[C@H](CCN)NC(=O)[C@H](CCCCN)NC(=O)[C@@H](CCN)NC(=O)[C@H]([C@@H](C)O)NC(=O)[C@H](CCN)NC(=O)[C@H](CCCNC(=N)N)NC1=O [Example 21, Val-Hyp-Ile-Pen-Tyr-Ser-Ile-Arg-Dab-Thr-^DDab-Lys-Dab-Dab-Cys-Tyr] (H-V[Hyp]I[Pen]YSIR[Dab]T[dDab]K[Dab][Dab]CY-OH; disulfide 4-15)
[1]
  Escherichia coli MCR-1 Af45 MIC: 0.0625 µg/mL
[2]
  Escherichia coli ATCC 25922 MIC: 0.0625 µg/mL
[3]
  Klebsiella pneumoniae SSI3010 MIC: 0.125 µg/mL
[4]
  Hemolysis at 0.2 g/L: <1%

## CC[C@H](C)[C@H](NC(=O)[C@@H]1CCCN1C(=O)[C@@H](N)C(C)C)C(=O)N[C@@H]1C(=O)N[C@@H](Cc2ccc(O)cc2)C(=O)N[C@@H]([C@@H](C)O)C(=O)N[C@@H](CC(N)=O)C(=O)N[C@@H](CCCNC(=N)N)C(=O)N[C@@H](CCN)C(=O)N[C@@H]([C@@H](C)O)C(=O)N[C@H](CCN)C(=O)N[C@@H](CCCCN)C(=O)N[C@@H](CCN)C(=O)N[C@@H](CCN)C(=O)N[C@H](C(=O)N[C@@H](Cc2ccc(O)cc2)C(=O)O)CSSC1(C)C [Example 5, Val-Pro-Ile-Pen-Tyr-Thr-Asn-Arg-Dab-Thr-^DDab-Lys-Dab-Dab-Cys-Tyr] (H-VPI[Pen]YTNR[Dab]T[dDab]K[Dab][Dab]CY-OH; disulfide 4-15)
[1]
  Escherichia coli MCR-1 Af45 MIC: 0.0625 µg/mL
[2]
  Escherichia coli ATCC 25922 MIC: 0.125 µg/mL
[3]
  Klebsiella pneumoniae SSI3010 MIC: 0.25 µg/mL
[4]
  Hemolysis at 0.2 g/L: <1%

## CC[C@H](C)[C@H](NC(=O)[C@@H]1C[C@@H](O)CN1C(=O)[C@@H](NC(=N)N)C(C)C)C(=O)N[C@@H]1C(=O)N[C@@H](Cc2ccc(O)cc2)C(=O)N[C@@H]([C@@H](C)O)C(=O)N[C@@H](CC(N)=O)C(=O)N[C@@H](CCCNC(=N)N)C(=O)N[C@@H](CCN)C(=O)N[C@@H]([C@@H](C)O)C(=O)N[C@H](CCN)C(=O)N[C@@H](CO)C(=O)N[C@@H](CCN)C(=O)N[C@@H](CCN)C(=O)N[C@H](C(=O)N[C@@H](Cc2ccc(O)cc2)C(=O)O)CSSC1(C)C [Example 81, Gua-Val-Hyp-Ile-Pen-Tyr-Thr-Asn-Arg-Dab-Thr-^DDab-Ser-Dab-Dab-Cys-Tyr] ({Val(Nα-amidino)}-[Hyp]I[Pen]YTNR[Dab]T[dDab]S[Dab][Dab]CY-OH; disulfide 3-14)
[1]
  Escherichia coli MCR-1 Af45 MIC: 0.125 µg/mL
[2]
  Escherichia coli ATCC 25922 MIC: 0.125 µg/mL
[3]
  Klebsiella pneumoniae SSI3010 MIC: 0.25 µg/mL
[4]
  Hemolysis at 0.2 g/L: <1%

## CC[C@H](C)[C@H](NC(=O)[C@@H]1C[C@@H](O)CN1C(=O)[C@@H](NC(=N)N)C(C)C)C(=O)N[C@@H]1C(=O)N[C@@H](Cc2ccc(O)cc2)C(=O)N[C@@H]([C@@H](C)O)C(=O)N[C@@H](CC(N)=O)C(=O)N[C@@H](CCCNC(=N)N)C(=O)N[C@H](CCN)C(=O)N[C@@H]([C@@H](C)O)C(=O)N[C@H](CCN)C(=O)N[C@@H](CO)C(=O)N[C@@H](CCN)C(=O)N[C@@H](CCN)C(=O)N[C@H](C(=O)N[C@@H](Cc2ccc(O)cc2)C(=O)O)CSSC1(C)C [Example 103, Gua-Val-Hyp-Ile-Pen-Tyr-Thr-Asn-Arg-^DDab-Thr-^DDab-Ser-Dab-Dab-Cys-Tyr] ({Val(Nα-amidino)}-[Hyp]I[Pen]YTNR[dDab]T[dDab]S[Dab][Dab]CY-OH; disulfide 3-14)
[1]
  Escherichia coli MCR-1 Af45 MIC: 0.125 µg/mL
[2]
  Escherichia coli ATCC 25922 MIC: 0.125 µg/mL
[3]
  Klebsiella pneumoniae SSI3010 MIC: 0.25 µg/mL
[4]
  Hemolysis at 0.2 g/L: <1%
